Data: PMC9465710, “Identification of a BAZ2A-Bromodomain Hit Compound by Fragment Growing” (ACS Medicinal Chemistry Letters, 2022)
Several values for one entry are separate records, joined by “and”; a condition that tells them apart may be missing. Equal values may be shown once.

Assays:
BAZ2A bromodomain [1] = target: T1, BAZ2A bromodomain (Homo sapiens, UniProt Q9UIF9); assay: AlphaScreen competition binding assay (BAZ2A bromodomain binding to acetylated peptide)
T1 construct: made in house
T1 sequence (Q9UIF9 1793-1897 limits assumed): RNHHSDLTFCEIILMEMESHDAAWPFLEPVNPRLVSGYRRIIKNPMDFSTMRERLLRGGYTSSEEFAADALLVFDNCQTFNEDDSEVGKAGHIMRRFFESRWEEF
Method: The 36 selected molecules were tested by AlphaScreen at single doses in duplicate. Six molecules (compounds 8, 9, 11, 14, 18, and 25) decreased binding of BAZ2A bromodomain to the acetylated peptide by at least 50% when tested at 500 μM. […]
AlphaScreen assay was conducted as detailed in [11]. […]

BAZ2A bromodomain [2] = target: T1, BAZ2A bromodomain; assay: Isothermal titration calorimetry (ITC); assay type: binding; conditions: 25°C, 0.25% DMSO, racemic mixture, read-out: equilibrium dissociation constant (KD)
Method: (§1) Trigonal crystals were obtained by co-crystallization as described in the same work. Monoclinic crystals were obtained by co-crystallization with compound 4 of reference; a back-soaking procedure was then applied by incubating the crystal in the crystallization solution without inhibitors for 36-48 hours, and subsequently exposing it to the new ligand of interest for 12-24 hours.
(§2) Diffraction data were collected at the Elettra Synchrotron Light Source (Trieste, Italy), XRD1 and XRD2 beamlines, and at the ESRF (Grenoble, France), ID30-A1 beamline. Data were processed and structures were solved as described elsewhere. BAZ2A/cmp9 data have been corrected for diffraction anisotropy with STARANISO (https://staraniso.globalphasing.org/cgi-bin/staraniso.cgi).
(§3) Data collection and refinement statistics are reported in Suppl. Tables 3-6. Electron densities (2Fo-Fc polder OMIT map) for the bound inhibitors are shown in Suppl. Fig. 7.
(§4) AlphaScreen assay was conducted as detailed in [11]. All experiments were performed at least in […]
(§5) Isothermal Titration Calorimetry
(§6) ITC experiments were performed using an MicroCal PEAQ-IT C microcalorimeter (Malvern Panalytical , UK) at 25°C with a stirring speed of 750 rpm in 20mM Tris pH 7. 8, 0. 2 M NaCl, 0. 2 mM TCEP and 0. 25% DMSO. For each experiment, one 0. […]

BAZ2B bromodomain = target: T2, BAZ2B bromodomain (Homo sapiens, UniProt Q9UIF8); assay: AlphaScreen competition binding assay on the BAZ2B bromodomain; conditions: AlphaScreen dose-response, Figure S6
T2 sequence (Q9UIF8 2060-2164 limits assumed): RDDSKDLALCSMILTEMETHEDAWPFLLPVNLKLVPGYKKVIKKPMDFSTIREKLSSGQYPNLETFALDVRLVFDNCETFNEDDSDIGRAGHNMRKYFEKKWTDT
Method: as §1, §2, §3, §4, §5, §6

ligand efficiency (LE) (BAZ2A bromodomain [1]): 0.24 kcal/mol per heavy atom | lipophilic ligand efficiency (LLE) (BAZ2A bromodomain [1]): 4.0 | IC50 (BAZ2A bromodomain [1]; AlphaScreen dose-response): 4 ± 0.2 µM | increase in potency with respect to 47 (BAZ2A bromodomain [1]; from AlphaScreen IC50): 8 fold | Kd (BAZ2A bromodomain [2]): 7.1 µM and 7 µM | IC50 (BAZ2B bromodomain): 33.5 µM
Structure (SMILES): CCc1c(-c2csc(N3CCNCC3C(=O)NCCc3ccno3)n2)[nH]c(C)c1C(C)=O (stereo not drawn) [Compound 104]
